From patent US9394297B2, “Amides as pim inhibitors” (AMGEN INC., priority 2012, dated 2016) come the findings set out here.

In one assay the target is Pim-1 (Homo sapiens (Human), UniProt P11309). The experiment in a line: Pim enzyme assay (HTRF, 96-well), Pim-1. Type of assay: biochemical. Conditions: full length recombinant Pim-1, biotinylated-BAD (S112) peptide, 10-point curve, 2 h RT, read-out: Pim-1 IC50 IP. The essentials:
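HTRF detection of biotinylated BAD (S112) phosphorylation by full-length recombinant His-tagged Pim-1 or Pim-2 in 60 mM Hepes pH 7.0, 0.05% BSA, 2 mM DTT at 22 °C: 2 h for Pim-1, 45 min for Pim-2. Stopped with EDTA; IC50 from 4-parameter logistic fit of percent of control.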
A general note: TR-FRET usually uses a lanthanide donor and a delayed reading to cut background.

The target of another assay is Pim-2 (Homo sapiens (Human), UniProt Q9P1W9). The assay is described as follows: Pim enzyme assay (HTRF, 96-well), Pim-2. The class given is biochemical. Conditions: full length recombinant Pim-2, biotinylated-BAD (S112) peptide, 10-point curve, 45 min RT, read-out: Pim-2 IC50 IP. From the text: These cDNAs were used as templates in PCR reactions to produce full-length DNA clones of the PIMs. […] PCR products were digested with BclI and EcoRI for Pim-1 and BamHI and EcoRI for Pim-2 and ligated into a modified baculovirus transfer vector (pFastBac1) cleaved with BamHI and EcoRI. For bacterial expression, the same cleaved PCR products encoding Pim-1 or Pim-2 were ligated into a modified E. coli expression vector pET28(a) cleaved with BamHI and EcoRI. Amino-terminal hexahistidine tags followed by a thrombin cleavage site were previously added to the vectors using standard methods of molecular biology.
Pim-2, sequence (Q9P1W9 whole entry): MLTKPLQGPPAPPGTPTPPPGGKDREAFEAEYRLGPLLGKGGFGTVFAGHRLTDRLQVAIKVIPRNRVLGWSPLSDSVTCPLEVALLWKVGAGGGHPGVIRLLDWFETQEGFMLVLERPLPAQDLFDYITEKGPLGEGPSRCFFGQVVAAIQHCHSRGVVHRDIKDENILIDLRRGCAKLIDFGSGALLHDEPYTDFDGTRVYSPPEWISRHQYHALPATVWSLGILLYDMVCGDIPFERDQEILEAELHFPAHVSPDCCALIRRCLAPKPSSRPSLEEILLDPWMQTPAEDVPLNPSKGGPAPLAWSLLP
Recombinant baculoviruses expressing Pim-1 or Pim-2 were made using standard methods (Fastbac manual, Invitrogen, Carlsbad, Calif.). […] Cells were harvested by centrifugation and frozen at −80 C. For E. coli expression, cells carrying pET28-His6-Th-Pim-1 or pET28-His6-Th-Pim-2 were picked from a single colony and grown o/n in LB media. The o/n culture was used to inoculate a 2 liter flask with 500 mL media. This was grown o/n and used to inoculate 15-20 liters of Terrific Broth in a New Brunswick Scientific fermentor. The E. coli were grown at 37° C. to and OD600 >1.6. The temperature was dropped to 18° C. and o/n expression was induced with 0.5 mM IPTG. Cells were harvested by centrifugation and frozen at −80° C.
The slurry was centrifuged at 1,000×g for 5 min, the supernatant decanted, and the resin suspended in 40 mL of lysis wash buffer (lysis buffer at 0.75 M NaCl). This step was repeated 3× and the resin was transferred to a 2.5 cm glass column. Ten column volumes of wash buffer (0.05 M HEPES, pH 8.0, 0.1 M NaCl, 0.01 M 2-mercaptoethanol, 10%(w/v) glycerol) were applied to the resin followed by 10 column volumes of elution buffer (0.05 M HEPES, pH 8.0, 0.25 M NaCl, 0.01 M 2-mercaptoethanol, 10%(w/v) glycerol, 0.1 M imidazole). Fractions were analyzed by SDS-PAGE and those containing the protein of interest were pooled and concentrated. The concentrated protein was applied to an Amersham Superdex 75 (XK 26/60) column equilibrated in 0.025 M Tris-HCl, pH 7.5, 0.1 M NaCl, 0.01 M 2-mercaptoethanol, 10% (w/v) glycerol. […] Fractions containing the monomeric protein of interest were pooled, concentrated to ˜2 mg/mL, and stored at −80° C.
The phosphorylation of biotinylated-BAD (S112) peptide by full length recombinant Pim-1, Pim-2, or Pim-3 protein was detected with streptavidin:Allophycocyanin (APC) conjugate and a europium (Eu) labeled antibody directed against phosphorylated-BAD (S112). […] The fluorescence is directly proportional to the amount of phosphorylated BAD peptide present in the reaction. […] A reference compound was included on each assay plate in order to validate that plate; on one plate of every assay run, two additional reference compounds were included. The final buffer conditions were as follows: 60 mM Hepes, pH 7.0, 0.05% BSA, 2 mM DTT. Incubations were carried out at RT (22° C.) for 2 h for Pim-1, 1 hour and 30 min for Pim-3, and 45 min for Pim-2. The reaction was stopped by the addition of 3 mM EDTA, and fluorescence was measured by an HTRF® Rubystar microplate reader. For each plate, percent of control (POC) values were calculated for each well. Values for the IC50 IP were estimated using a standard 4-parameter logistic model.

Pim-1, sequence (P11309 whole entry): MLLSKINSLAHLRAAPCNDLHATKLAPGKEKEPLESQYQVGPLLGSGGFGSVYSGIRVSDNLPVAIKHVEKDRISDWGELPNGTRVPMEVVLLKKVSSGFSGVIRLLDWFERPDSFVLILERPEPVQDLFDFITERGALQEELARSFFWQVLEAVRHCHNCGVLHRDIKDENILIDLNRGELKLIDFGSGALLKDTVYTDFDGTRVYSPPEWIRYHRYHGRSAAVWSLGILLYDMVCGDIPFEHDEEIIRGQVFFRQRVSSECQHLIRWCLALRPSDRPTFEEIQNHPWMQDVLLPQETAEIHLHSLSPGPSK

`Cc1nc2cccc(-c3cc4c([nH]3)CCNC4=O)c2nc1N1CCOCC1` [Example 133, 2-(2-methyl-3-morpholinoquinoxalin-5-yl)-6,7-dihydro-1H-pyrrolo[3,2-c]pyridin-4(5H)-one]: the IC50 on Pim-1 turned out to be 0.0934 µM; at Pim-2 it was 0.0998 µM.
Consider `COC(=O)[C@H](C)Nc1nc2c(-c3cc4c([nH]3)CCNC4=O)cccc2nc1C` [Example 136, (S)-methyl 2-((3-methyl-8-(4-oxo-4,5,6,7-tetrahydro-1H-pyrrolo[3,2-c]pyridin-2-yl)quinoxalin-2-yl)amino)propanoate], for which the IC50 at Pim-1 worked out at 0.0495 µM; at Pim-2, 0.154 µM.
Turning to `COC(=O)[C@@H](C)Nc1nc2c(-c3cc4c([nH]3)CCNC4=O)cccc2nc1C` [Example 137, (R)-methyl 2-((3-methyl-8-(4-oxo-4,5,6,7-tetrahydro-1H-pyrrolo[3,2-c]pyridin-2-yl)quinoxalin-2-yl)amino)propanoate], the figures for the IC50 on Pim-1 and on Pim-2 were 0.0967 µM and 0.0741 µM, respectively.
Regarding `Cc1nc2cccc(-c3cc4c([nH]3)CCNC4=O)c2nc1N1CCCC1` [Example 138, 2-(2-methyl-3-(pyrrolidin-1-yl)quinoxalin-5-yl)-6,7-dihydro-1H-pyrrolo[3,2-c]pyridin-4(5H)-one], the IC50 was 0.0348 µM at Pim-1 and 0.0301 µM on Pim-2.
As to `O=C1NCCn2cc(-c3cccc4ccc(C(=O)N5CCOCC5)nc34)cc21` [Example 167, 7-(2-(morpholine-4-carbonyl)quinolin-8-yl)-3,4-dihydropyrrolo[1,2-a]pyrazin-1(2H)-one], the IC50 at Pim-1 is 0.671 µM; at Pim-2 it was 0.667 µM.
Regarding `O=c1[nH]ccc2[nH]c(-c3cccc4ccc(Nc5ccccc5)nc34)nc12` [Example 189, 2-(2-(phenylamino)quinolin-8-yl)-1H-imidazo[4,5-c]pyridin-4(5H)-one 2,2,2-trifluoroacetate], the IC50 on Pim-1 turned out to be 0.0286 µM; at Pim-2, 0.0718 µM.
As for `O=c1[nH]ccc2[nH]c(-c3cccc4ccc(Oc5ccccc5)nc34)cc12` [Example 225, 2-(2-phenoxyquinolin-8-yl)-1H-pyrrolo[3,2-c]pyridin-4(5H)-one], the IC50 at Pim-1 is 0.0159 µM; at Pim-2 it was 0.0437 µM.
`O=C1NCCc2[nH]c(-c3cccc4ccc(-c5ccccc5)nc34)cc21` [Example 226, 2-(2-phenylquinolin-8-yl)-6,7-dihydro-1H-pyrrolo[3,2-c]pyridin-4(5H)-one]: the IC50 at Pim-1 worked out at 0.0253 µM; at Pim-2, 0.0381 µM.
The matching figures for `O=C1NCCc2[nH]c(-c3cccc4ccc(-c5c(F)cccc5F)nc34)cc21` [Example 231, 2-(2-(2,6-difluorophenyl)quinolin-8-yl)-6,7-dihydro-1H-pyrrolo[3,2-c]pyridin-4(5H)-one]: 0.0081 µM and 0.0919 µM.
The matching figures for `Cc1ccc(C(N)=O)cc1-c1ccc2cccc(-c3cc4c([nH]3)CCNC4=O)c2n1` [Example 232, 4-methyl-3-(8-(4-oxo-4,5,6,7-tetrahydro-1H-pyrrolo[3,2-c]pyridin-2-yl)-2-quinolinyl)benzamide]: 0.0233 µM and 0.0529 µM.
The matching figures for `O=C1NCCc2[nH]c(-c3cccc4cnc(Oc5ccccc5)nc34)cc21` [Example 236, 2-(2-phenoxyquinazolin-8-yl)-6,7-dihydro-1H-pyrrolo[3,2-c]pyridin-4(5H)-one 2,2,2-trifluoroacetate]: 0.0342 µM and 0.0402 µM.
In the case of `O=C1NCCc2[nH]c(-c3cccc4cnc(C5(c6ccccc6)CC5)nc34)cc21` [Example 244, 2-(2-(1-phenylcyclopropyl)quinazolin-8-yl)-6,7-dihydro-1H-pyrrolo[3,2-c]pyridin-4(5H)-one], the IC50 at Pim-1 came to 0.0069 µM; on Pim-2, 0.0179 µM.
With `O=C1NCCc2[nH]c(-c3cccc4cnc(Nc5ccccc5)nc34)cc21` [Example 251, 2-(2-(phenylamino)quinazolin-8-yl)-6,7-dihydro-1H-pyrrolo[3,2-c]pyridin-4(5H)-one], the IC50 on Pim-1 stood at 0.0083 µM; on Pim-2 it was 0.0135 µM.

What is called IC50 is the point on the concentration scale where inhibition reaches its midpoint.
